Measured values published in patent publication US20190085024A1, “Alpha-Ketoamide Inhibitors Of Cysteine Proteases” (Phelix Therapeutics, priority 2017, published 2019).

Legend:
Cathepsin L = Cathepsin L (Homo sapiens, UniProt P07711); assay: Cathepsin L enzyme assay; format: biochemical; conditions: Ki by Morrison equation; pH 5.5, substrate Z-Phe-Arg-Amc; read-out: Cat L
Source text: Two wells contained DMSO only for controls.
Velocity was converted to μM/sec.

Calpain = Calpain enzyme assay; format: biochemical; conditions: Ki by Morrison equation; pH 7.5, 5 mM CaCl2

Cathepsin L, sequence (P07711 114-333, species assumed): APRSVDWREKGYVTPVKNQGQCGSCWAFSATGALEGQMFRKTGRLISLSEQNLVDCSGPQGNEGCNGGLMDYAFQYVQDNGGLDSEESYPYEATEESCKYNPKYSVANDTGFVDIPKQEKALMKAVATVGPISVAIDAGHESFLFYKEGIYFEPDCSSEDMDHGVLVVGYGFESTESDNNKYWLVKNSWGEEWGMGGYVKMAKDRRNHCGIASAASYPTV

SMILES	Ki (Cathepsin L) [µM]	Ki (Calpain) [µM]
CCC(C)C(NC(=O)C(CC(C)C)NC(=O)OCc1ccccc1)C(=O)C(=O)NC(CC(N)=O)Cc1ccccc1 (centres unmarked) [PHELIX326, benzyl (1-((1-((4-amino-4-oxo-1-phenylbutan-2-yl)amino)-4-methyl-1,2-dioxohexan-3-yl)amino)-4-methyl-1-oxopentan-2-yl)carbamate]	0.0602	0.702
CCC(C)C(NC(=O)C(Cc1c[nH]cn1)NC(=O)OCc1ccccc1)C(=O)C(=O)NCC(=O)NC(Cc1ccc2ccccc2c1)C(N)=O (centres unmarked) [PHELIX311, benzyl (1-((1-((2-((1-amino-3-(naphthalen-2-yl)-1-oxopropan-2-yl)amino)-2-oxoethyl)amino)-4-methyl-1,2-dioxohexan-3-yl)amino)-3-(1H-imidazol-4-yl)-1-oxopropan-2-yl)carbamate]	0.106	0.309
CCC(C)C(C(=O)C(=O)NCC(=O)NC(Cc1ccc2ccccc2c1)C(N)=O)N(C)C(=O)C(CC(C)C)NC(=O)OCc1ccccc1 (centres unmarked) [PHELIX305, benzyl (1-((1-((2-((1-amino-3-(naphthalen-2-yl)-1-oxopropan-2-yl)amino)-2-oxoethyl)amino)-4-methyl-1,2-dioxohexan-3-yl)(methyl)amino)-4-methyl-1-oxopentan-2-yl)carbamate]	0.912	9.45
CCC(C)C(NC(=O)C(CC(N)=O)NC(=O)Cc1ccccc1)C(=O)C(=O)NCC(=O)NC(Cc1ccc2ccccc2c1)C(N)=O (centres unmarked) [PHELIX322, N^1-(1-((2-((1-amino-3-(naphthalen-2-yl)-1-oxopropan-2-yl)amino)-2-oxoethyl)amino)-4-methyl-1,2-dioxohexan-3-yl)-2-(2-phenylacetamido)succinamide]	0.101	0.071
CCC(C)C(NC(=O)C(CC(C)C)NC(=O)OCc1ccccc1)C(=O)C(=O)NCC(=O)NC(Cc1ccncc1)C(N)=O (centres unmarked) [PHELIX357, benzyl (1-((1-((2-((1-amino-1-oxo-3-(pyridin-4-yl)propan-2-yl)amino)-2-oxoethyl)amino)-4-methyl-1,2-dioxohexan-3-yl)amino)-4-methyl-1-oxopentan-2-yl)carbamate]	0.00439	0.0155
CCC(C)C(NC(=O)C(CC(C)C)NC(=O)OCc1ccccc1)C(=O)C(=O)NCC(=O)NCc1ccc2ccccc2c1 (centres unmarked) [PHELIX303, benzyl (4-methyl-1-((4-methyl-1-((2-((naphthalen-2-ylmethyl)amino)-2-oxoethyl)amino)-1,2-dioxohexan-3-yl)amino)-1-oxopentan-2-yl)carbamate]	0.00114	0.00603
CCC(C)C(NC(=O)C(Cc1ccccc1)NC(=O)Cc1ccccc1)C(=O)C(=O)NCC(=O)NC(Cc1ccc2ccccc2c1)C(N)=O (centres unmarked) [PHELIX321, N-(2-((1-amino-3-(naphthalen-2-yl)-1-oxopropan-2-yl)amino)-2-oxoethyl)-4-methyl-2-oxo-3-(3-phenyl-2-(2-phenylacetamido)propanamido)hexanamide]	< 0.0001	0.0839
CCC(C)C(NC(=O)C(CC(C)C)NC(=O)Cc1ccncc1)C(=O)C(=O)NCC(=O)N(C)C(Cc1ccccc1)C(N)=O (centres unmarked) [PHELIX353, N-(2-((1-amino-1-oxo-3-phenylpropan-2-yl)(methyl)amino)-2-oxoethyl)-4-methyl-3-(4-methyl-2-(2-(pyridin-4-yl)acetamido)pentanamido)-2-oxohexanamide]	0.00055	0.00303
CCC(C)C(NC(=O)C(Cc1c[nH]cn1)NC(=O)Cc1ccccc1)C(=O)C(=O)NCC(=O)NC(Cc1ccc2ccccc2c1)C(N)=O (centres unmarked) [PHELIX302, 3-(3-(1H-imidazol-4-yl)-2-(2-phenylacetamido)propanamido)-N-(2-((1-amino-3-(naphthalen-2-yl)-1-oxopropan-2-yl)amino)-2-oxoethyl)-4-methyl-2-oxohexanamide]	0.389	0.201
CCC(C)C(NC(=O)C(CC(C)C)NC(=O)OCc1ccccc1)C(=O)C(=O)NC(CCCNC(N)=O)C(N)=O (centres unmarked) [PHELIX341, benzyl (1-((1-((1-amino-1-oxo-5-ureidopentan-2-yl)amino)-4-methyl-1,2-dioxohexan-3-yl)amino)-4-methyl-1-oxopentan-2-yl)carbamate]	0.0279	0.0234
CCC(C)C(NC(=O)C(CC(C)C)NC(=O)OCc1ccccc1)C(=O)C(=O)NCC(=O)NC(Cc1ccc(C#N)cc1)C(N)=O (centres unmarked) [PHELIX350, benzyl (1-((1-((2-((1-amino-3-(4-cyanophenyl)-1-oxopropan-2-yl)amino)-2-oxoethyl)amino)-4-methyl-1,2-dioxohexan-3-yl)amino)-4-methyl-1-oxopentan-2-yl)carbamate]	0.0042	0.00345
CCC(C)C(NC(=O)C(CC(C)C)NC(=O)C(Cc1ccccc1)NC(C)=O)C(=O)C(=O)NC(CCCNC(=N)N)C(N)=O (centres unmarked) [PHELIX345]	0.0113	0.0371
CCC(C)C(NC(=O)C(CC(C)C)NC(=O)OCc1ccccc1)C(=O)C(=O)N1CC(C(=O)NCc2ccc(C(=N)N)cc2)C1 (centres unmarked) [PHELIX366, benzyl (1-((1-(3-((4-carbamimidoylbenzyl)carbamoyl)azetidin-1-yl)-4-methyl-1,2-dioxohexan-3-yl)amino)-4-methyl-1-oxopentan-2-yl)carbamate]	0.137	0.442
CCC(C)C(NC(=O)C(CC(C)C)NC(=O)OCc1ccccc1)C(=O)C(=O)NCC(=O)NC(Cc1cc2ccccc2[nH]1)C(N)=O (centres unmarked) [PHELIX327, benzyl (1-((1-((2-((1-amino-3-(1H-indol-2-yl)-1-oxopropan-2-yl)amino)-2-oxoethyl)amino)-4-methyl-1,2-dioxohexan-3-yl)amino)-4-methyl-1-oxopentan-2-yl)carbamate]	0.00933	0.00998

Continued, values first:

Ki (Cathepsin L) [µM]	Ki (Calpain) [µM]	SMILES
0.00265	0.00081	CCC(C)C(NC(=O)C(CC(C)C)NC(=O)Cc1cccnc1)C(=O)C(=O)NCC(=O)NC(Cc1ccc2ccccc2c1)C(N)=O (centres unmarked) [PHELIX312, N-(2-((1-amino-3-(naphthalen-2-yl)-1-oxopropan-2-yl)amino)-2-oxoethyl)-4-methyl-3-(4-methyl-2-(2-(pyridin-3-yl)acetamido)pentanamido)-2-oxohexanamide]
5.91	> 10	CCC(C)C(NC(=O)C(CC(C)C)NC(=O)OCc1ccccc1)C(=O)C(=O)N(C)CC(=O)NC(Cc1ccc2ccccc2c1)C(N)=O (centres unmarked) [PHELIX291, benzyl (1-((1-((2-((1-amino-3-(naphthalen-2-yl)-1-oxopropan-2-yl)amino)-2-oxoethyl)(methyl)amino)-4-methyl-1,2-dioxohexan-3-yl)amino)-4-methyl-1-oxopentan-2-yl)carbamate]
0.00157	0.00171	CCC(C)C(NC(=O)C(CC(C)C)NC(=O)OCc1ccccc1)C(=O)C(=O)NCC(=O)NC(Cc1ccc(OC)cc1)C(N)=O (centres unmarked) [PHELIX355, benzyl (1-((1-((2-((1-amino-3-(4-methoxyphenyl)-1-oxopropan-2-yl)amino)-2-oxoethyl)amino)-4-methyl-1,2-dioxohexan-3-yl)amino)-4-methyl-1-oxopentan-2-yl)carbamate]
0.0196	0.0101	CCC(C)C(NC(=O)C(CC(C)C)NC(=O)CN1CCOCC1)C(=O)C(=O)NC(Cc1ccc2ccccc2c1)C(N)=O (centres unmarked) [PHELIX354, N-(1-amino-3-(naphthalen-2-yl)-1-oxopropan-2-yl)-4-methyl-3-(4-methyl-2-(2-morpholinoacetamido)pentanamido)-2-oxohexanamide]
0.315	2.57	CCC(C)C(NC(=O)C(CC(C)C)NC(=O)OCc1ccccc1)C(=O)C(=O)NC1(C(=O)NC(Cc2ccc3ccccc3c2)C(N)=O)CC1 (centres unmarked) [PHELIX298, benzyl (1-((1-((1-((1-amino-3-(naphthalen-2-yl)-1-oxopropan-2-yl)carbamoyl)cyclopropyl)amino)-4-methyl-1,2-dioxohexan-3-yl)amino)-4-methyl-1-oxopentan-2-yl)carbamate]
< 0.0001	0.00991	CCC(C)C(NC(=O)C(CC(C)C)NC(=O)CN1CCN(C)CC1)C(=O)C(=O)NCC(=O)NC(Cc1ccc2ccccc2c1)C(N)=O (centres unmarked) [PHELIX313, N-(2-((1-amino-3-(naphthalen-2-yl)-1-oxopropan-2-yl)amino)-2-oxoethyl)-4-methyl-3-(4-methyl-2-(2-(4-methylpiperazin-1-yl)acetamido)pentanamido)-2-oxohexanamide]
0.0237	0.0415	CCC(C)C(NC(=O)C(CC(C)C)NC(=O)OCc1ccccc1)C(=O)C(=O)NC(Cc1ccc2ccccc2c1)C(=O)NC1CC1 (centres unmarked) [PHELIX361, benzyl (1-((1-((1-(cyclopropylamino)-3-(naphthalen-2-yl)-1-oxopropan-2-yl)amino)-4-methyl-1,2-dioxohexan-3-yl)amino)-4-methyl-1-oxopentan-2-yl)carbamate]
0.00291	0.0214	CCC(C)C(NC(=O)C(CC(C)C)NC(=O)OCc1ccccc1)C(=O)C(=O)NC(CCCNC(=N)N)C(=O)NC(Cc1ccc2ccccc2c1)C(N)=O (centres unmarked) [PHELIX330, benzyl (1-((1-((1-((1-amino-3-(naphthalen-2-yl)-1-oxopropan-2-yl)amino)-5-guanidino-1-oxopentan-2-yl)amino)-4-methyl-1,2-dioxohexan-3-yl)amino)-4-methyl-1-oxopentan-2-yl)carbamate]
0.00115	0.00237	CCC(C)C(NC(=O)C(CC1CC1)NC(=O)Cc1ccccc1)C(=O)C(=O)NCC(=O)NC(Cc1ccc2ccccc2c1)C(N)=O (centres unmarked) [PHELIX332, N-(2-((1-amino-3-(naphthalen-2-yl)-1-oxopropan-2-yl)amino)-2-oxoethyl)-3-(3-cyclopropyl-2-(2-phenylacetamido)propanamido)-4-methyl-2-oxohexanamide]
< 0.0002	0.0205	CCC(C)C(NC(=O)C(CC(C)C)NC(=O)OCc1ccccc1)C(=O)C(=O)NC(CCCNC(=N)N)C(=O)NC(Cc1ccc2ccccc2c1)C(N)=O (centres unmarked) [PHELIX289, benzyl (1-((1-((1-((1-amino-3-(naphthalen-2-yl)-1-oxopropan-2-yl)amino)-5-guanidino-1-oxopentan-2-yl)amino)-4-methyl-1,2-dioxohexan-3-yl)amino)-4-methyl-1-oxopentan-2-yl)carbamate]
0.0206	0.0267	CC[C@H](C)C(NC(=O)[C@H](CC(C)C)NC(=O)OCc1ccccc1)C(=O)C(=O)N[C@@H](Cc1cccnc1)C(N)=O (some centres unmarked) [PHELIX344]
